Literature values as cited in patent US20070212386A1, “COATINGS FOR IMPLANTABLE MEDICAL DEVICES” (Sahajanand Medical Technologies Pvt. Ltd., priority 2006, published 2007).

Legend:
[1] = test system: collagen induced platelet aggregation; settings: literature refs [2,5]
[2] = general statement

**Q.** Which results are given for `O=c1c(-c2ccc(O)cc2)coc2cc(O)cc(O)c12` [Genistein, 5,7-dihydroxy-3-(4-hydroxyphenyl)-4H-1-benzopyran-4-one]?
**A.** concentration preventing collagen induced platelet aggregation [1]: more than 25 μM; solubility in water [2]: practically insoluble in water

**Q.** For `O=c1c(-c2ccc(O)cc2)coc2cc(O[C@@H]3O[C@H](CO)[C@@H](O)[C@H](O)[C@H]3O)cc(O)c12` [Genistin], which solubility in water [2] is on record?
**A.** greater water solubility than genistein

**Q.** With `O=c1c(O)c(-c2ccc(O)c(O)c2)oc2cc(O)cc(O)c12` [Quercetin, 2-(3,4-dihydroxyphenyl)-3,5,7-trihydroxy-4H-1-benzopyran-4-one] as the compound, how does the solubility in water [2] read?
**A.** practically insoluble in water
